Data from US11672790B2, “Methods of managing conditioned fear with neurokinin receptor antagonists” (Emory University, priority 2014, dated 2023).
Entries after “also recorded” stand apart in the source; their conditions may differ.

Tests used:
mice [1] = assay: Elevated plus maze, systemic osanetant 30 minutes before; type: in vivo; details: 30 minutes before elevated plus maze
Protocol: (§1) Different cohorts of mice received systemic osanetant 30 minutes before open field, elevated plus maze or fear conditioning in the startle chamber.
FIG. 6C time in open arms,
FIG. 6D entries in open arms, and
FIG. 6E time in closed arms in the elevated plus maze.
(§2) The above studies indicate that osanetant would target the Nk3R in the amygdale in vivo. Osanetant given systemically, 30 minutes before open field, elevated plus maze and the conditioning chamber elicits no changes in anxiety-like behavior, locomotor activity or electric shock reactivity.

[2] = tested on: Pac1 receptor (Adcyap1r1); assay: Adcyap1r1 (PAC1 receptor) mRNA levels in the amygdala after fear conditioning; type: in vivo, mice; details: intraperitoneally 30 minutes before fear conditioning, vs Veh-FC
From the text: The PACAP-PAC1R pathway is associated with PTSD, fear conditioning and stress.
(§3) Recently, the PACAP-PAC1R pathway has been associated with PTSD in humans as well as in animal models. (See Stevens et al., 2014).

mice [3] = assay: Open field, systemic osanetant 30 minutes before; type: in vivo; details: 30 minutes before open field
Protocol: as §1, §2

IMO treated mice = assay: Fear conditioning after immobilization to a wooden board (IMO), PTSD-like model; type: in vivo; details: systemic immediately after FC
Protocol: Veh=vehicle; Osa=osanetant.
Mice exposed for 2 hours to a severe one-time stressor, immobilization to a wooden board (IMO), present long-term PTSD-like symptoms: impaired fear extinction and spatial memory, and enhanced anxiety-like behaviors. Additionally, IMO in rats elicits alterations of the hypothalamic-pituitary-adrenal (HPA) axis which may be similar to the process initiating PTSD in humans.

mice [4] = assay: Shock reactivity in the startle chamber; type: in vivo; details: systemic, 30 minutes before testing in the startle chamber
Protocol: as §1, §2

mice [5] = assay: Auditory cued fear conditioning and fear expression test, systemic osanetant; type: in vivo; details: dosed from 30 min before FC up to 1 hour after training; for fear memory consolidation, freezing in the fear expression test: vs vehicle
guinea-pigs = details: cited from earlier work
mice [6] = assay: Fear conditioning in mice with LV-Tac2 or LV-GFP infused in the central amygdala, systemic osanetant; type: in vivo; details: systemic immediately after FC, tested 24 hours later
From the text: The lentivirus GFP-FUGW induces GFP expression but not Neurokinin B (NkB) in Hek293 cells. […] Tac2-FUGW or GFP-FUGW were bilaterally infused in the central amygdala and mice were left undisturbed for 14 days.
The lentiviruses GFP-FUGW and Tac2-FUGW causes no changes in fear conditioning. Osanetant or vehicle were given systemically immediately after fear acquisition.
A viral vector was developed to overexpress the Tac2 gene in an inducible fashion within the brain, the lentivirus-Tac2 (LV-Tac2). […] The behavioral effects of Tac2 overexpression was examined in mice. […] Mice infected with the LVTac2 or LV-GFP received systemic osanetant or vehicle immediately after FC, and then fear expression was tested 24 hours later. Specific CeA-Tac2 overexpression elicited a significant enhancement of fear memory consolidation. […] Additionally, the enhanced fear memory consolidation caused by CeA-Tac2 overexpression was reversed by osanetant (Post-hoc, **P≤0.01 vs LV-Tac2-Osa and LV-GFP-Osa FIG. 4D).

Nk3R = target: T1, Nk3R (Mus musculus, UniProt P47937); assay: Amygdala cell culture incubated with osanetant, Nk3R mRNA levels; type: cell-based; details: incubation with 20 μg and 40 μg of osanetant, vs Veh
T1 construct: endogenous in cells; host or cells: mouse amygdala cell culture (primary)
T1 sequence (P47937 1-452): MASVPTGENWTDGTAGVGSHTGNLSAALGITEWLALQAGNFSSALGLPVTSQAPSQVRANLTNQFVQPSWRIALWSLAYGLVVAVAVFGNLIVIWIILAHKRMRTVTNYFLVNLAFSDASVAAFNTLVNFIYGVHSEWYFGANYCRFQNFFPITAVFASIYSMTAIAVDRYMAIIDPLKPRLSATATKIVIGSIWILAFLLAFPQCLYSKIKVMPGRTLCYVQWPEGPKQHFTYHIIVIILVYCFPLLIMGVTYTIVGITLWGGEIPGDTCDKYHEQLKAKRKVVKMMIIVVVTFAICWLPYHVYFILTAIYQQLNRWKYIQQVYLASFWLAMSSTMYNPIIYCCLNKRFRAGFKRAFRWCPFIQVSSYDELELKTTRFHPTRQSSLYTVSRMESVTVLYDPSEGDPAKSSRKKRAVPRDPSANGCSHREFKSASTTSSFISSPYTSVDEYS
From the text: Moreover, NkB peptide is also highly expressed in the CeA. […] The Nk3R antagonist osanetant has already been used in humans in clinical trials for schizophrenia.

CeA-NK3R = target: T2, CeA-NK3R (Mus musculus, UniProt P47937); assay: Osanetant bilaterally injected into the central amygdala, cued-fear expression test; type: in vivo, mice; details: bilateral infusion in the CeA immediately after fear conditioning; vs vehicle
T2 construct: from tissue; host or cells: central amygdala of living mice (in vivo infusion)
T2 sequence (P47937 1-452): T1 sequence (P47937 1-452)
From the text: as §3

[7] = tested on: Tac2-expressing neurons in the CeA; assay: Gi-DREADD silencing of Tac2-expressing CeA neurons with CNO, fear conditioning and elevated plus maze; type: in vivo, mice
Protocol: Tac2-Cre^− or Tac2-Cre^+ mice were infected with the hM4Di-mCherry AAV in the CeA. The Gi receptor was inserted only on the Tac2-Cre cells of Tac2-Cre+mice, CeM=centro-medial amygdala, CeL=centro-lateral amygdala. CNO was given systemically 30 minutes prior to fear conditioning to Tac2-Cre-/hM4Di-mCherry and Tac2 Cre+/hM4DimCherry. […] Tac2-Cre-/hM4DimCherry vs Tac2-Cre+/hM4Di-mCherry. Tac2-Cre-/hM4Di-mCherry and Tac2-Cre+/hM4Di-mCherry mice were retrained to a different acoustic tone (CS) without receiving CNO.
To further understand the role of the Tac2 gene, the activity of neurons expressing this gene in the CeA were temporarily silenced during fear learning using designer receptors exclusively activated by designer drugs (DREADD) technology. The B6.129-Tac2tm1.1(cre) Qima/J (Tac2-cre) (Mar et al., Mol. Brain, 2012, 5, 3) mice were infected with a DREADD Gi-coupled receptor via the pAAV-hSyn-double floxed hM4D-mCherry virus (hM4Di-mCherry AAV). […] 14 days later, clozapine-N-oxide (CNO), which binds to the inserted receptor but otherwise is pharmacologically inert, was given systemically 30 minutes before FC in both groups, Tac2-Cre-/hM4Di-mCherry and Tac2-Cre+/hM4Di-mCherry. CNO had no effect on fear acquisition as shown by equivalent amount of freezing in both groups (FIG. 5A). […] Mice were then retrained with a different CS and a different context in the same FC apparatus, as in previous experiments but without dosing CNO.

With CC(=O)N(C)C1(c2ccccc2)CCN(CCC[C@]2(c3ccc(Cl)c(Cl)c3)CCCN(C(=O)c3ccccc3)C2)CC1 [osanetant, (R)-N-{{3-[1-Benzoyl-3-(3,4-dichlorophenyl)piperidin-3-yl]prop-1-yl}-4-phenylpiperidin-4-yl}-N-methylacetamine] as the compound, how does the “anxiety-like behavior in the elevated plus maze (time in open arms, entries in open arms, time in closed arms)” value (mice [1]) read?
Its value is “no effects”.

And the “anxiety-like behavior in the elevated plus maze (time in open arms, entries in open arms, time in closed arms)” value (mice [1]; listed as Osanetant)?
The value was “no changes; also recorded: did not modified anxiety-like behavior”.

What about the “Adcyap1r1 (PAC1 receptor) mRNA levels in the amygdala” value [2] of the same compound?
The value was “impaired the enhancement of mRNA levels”.

What about the “Adcyap1r1 (PAC1 receptor) mRNA levels in the amygdala” value ([2]; listed as Osanetant) of the same compound?
Its value is “normalizes the levels; also recorded: prevented the up-regulation”.

And the “anxiety-like behavior, time in the center of the open field” value (mice [3])?
The value was “no effects”.

What about the “locomotor activity, distance travelled in the open field” value (mice [3]) of the same compound?
Its value is “no effects; also recorded: equivalent distance travelled”.

What about the “anxiety-like behavior, time in the center of the open field” value (mice [3]; listed as Osanetant) of the same compound?
The value was “no changes; also recorded: did not modified anxiety-like behavior”.

And the “locomotor activity, distance travelled in the open field” value (mice [3]; listed as Osanetant)?
The value was “no changes”.

What about the “fear memory consolidation, freezing in the fear expression test” value (IMO treated mice) of the same compound?
The value was “impaired memory consolidation”.

What about the “fear memory consolidation, freezing in the fear expression test” value (IMO treated mice; listed as Osanetant) of the same compound?
The value was “impaired fear memory consolidation”.

And the electric shock reactivity (mice [4])?
Its electric shock reactivity is “no effects; also recorded: Equivalent shock reactivity”.

What about the electric shock reactivity (mice [4]; listed as Osanetant) of the same compound?
Its electric shock reactivity is “no changes”.

What about the fear acquisition (mice [5]) of the same compound?
Its fear acquisition is “does not affect fear acquisition”.

What about the fear acquisition (mice [5]; listed as Osanetant) of the same compound?
Its fear acquisition is “without affecting fear expression”.

What about the “fear memory consolidation, freezing in the fear expression test” value (mice [5]) of the same compound?
The value was “impairs fear memory consolidation; also recorded: impairs fear learning”.

And the “fear memory consolidation, freezing in the fear expression test” value (mice [5]; listed as Osanetant)?
The value was “impairs cued-fear memory; also recorded: impairs fear memory consolidation”.

What about the “substance P-induced bronchial hyperreactivity” value (guinea-pigs) of the same compound?
Its value is “prevents”.

What about the “enhanced fear memory consolidation caused by CeA-Tac2 overexpression” value (mice [6]; LV-Tac2 mice) of the same compound?
The value was “reversed; also recorded: impairs this effect”.

What about the fear memory consolidation (mice [6]; control LV-GFP mice, vs LV-GFP-Veh) of the same compound?
The fear memory consolidation was “impaired fear memory consolidation”.

What about the “Nk3R mRNA levels” value (Nk3R) of the same compound?
Its value is “dose-dependent enhanced Nk3R mRNA levels; also recorded: enhances Nk3R mRNA levels; also recorded: increases Nk3R mRNA levels”.

And the “fear memory consolidation, freezing in the cued-fear expression test” value (CeA-NK3R)?
The value was “impaired fear memory consolidation”.

Which “anxiety-like behavior, elevated plus maze” value ([7]; CNO 30 minutes before, both Tac2-Cre groups) does the source give for C[N+]1([O-])CCN(C2=Nc3cc(Cl)ccc3Nc3ccccc32)CC1 [CNO, clozapine-N-oxide] here?
The value was “equivalent levels; also recorded: no effect”.

What about the “fear acquisition, freezing” value ([7]; CNO systemically 30 minutes before FC, Tac2-Cre-/hM4Di-mCherry and Tac2-Cre+/hM4Di-mCherry) of the same compound?
The value was “no effect; also recorded: did not affect freezing during fear acquisition”.

And the “fear expression, freezing 24 hrs later in the absence of CNO” value ([7]; Tac2-Cre+/hM4Di-mCherry vs Tac2-Cre-/hM4Di-mCherry, CNO 30 minutes before FC)?
The value was “less freezing; also recorded: less conditioned fear”.

And the pain sensitivity ([7]; given CNO, both Tac2-Cre groups)?
The pain sensitivity was “equivalent levels”.
